# Test results from ChEMBL document CHEMBL1201862, “PubChem BioAssay data set” (2004).
# Calls of active or inactive are those of the source.
# Columns and labels:
# [1] = T. cruzi growth inhibition in host cells, dose response, cell-based, plate reader, dry powder, set 2 (AID 652275); format: functional
# fMet-Leu-Phe receptor = fMet-Leu-Phe receptor (Homo sapiens, UniProt P21462); assay: FPR ligands, dose response (AID 519); format: functional
# cells [2] = assay: cells
# [3] = molecular target: T1, RNA-binding protein pos-1 (Caenorhabditis elegans, UniProt G5EF15); assay: inhibitors of POS-1/mex-3 RNA binding, dose response, biochemical, fluorescence polarization (AID 1964);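 note: purified POS-1 fused to maltose binding protein made in E. coli; potency of compounds blocking POS-1 binding to fluorescent RNA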
# T1 sequence (G5EF15 whole entry): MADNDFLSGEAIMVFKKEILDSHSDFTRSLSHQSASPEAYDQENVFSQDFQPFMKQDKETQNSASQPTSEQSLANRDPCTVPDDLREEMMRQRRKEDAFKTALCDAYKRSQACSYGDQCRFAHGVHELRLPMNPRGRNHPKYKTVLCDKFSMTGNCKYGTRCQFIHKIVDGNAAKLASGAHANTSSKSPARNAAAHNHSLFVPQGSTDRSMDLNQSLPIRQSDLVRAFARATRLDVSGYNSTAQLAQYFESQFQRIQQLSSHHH
# [4] = molecular target: T2, Oxysterols receptor LXR-beta (Homo sapiens, UniProt P55055); format: functional, cell-based;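 note: Cell-based luminescence dose-response assay of agonist activity at LXR, run as a confirmatory counterscreen to a daf-12 agonist screen; HEK293 cells with Gal4-LXR fusion and GAL4-driven luciferase reporter; agonist potency from rising luciferase signal of a Gal4-LXR reporter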
# T2 sequence (P55055 whole entry): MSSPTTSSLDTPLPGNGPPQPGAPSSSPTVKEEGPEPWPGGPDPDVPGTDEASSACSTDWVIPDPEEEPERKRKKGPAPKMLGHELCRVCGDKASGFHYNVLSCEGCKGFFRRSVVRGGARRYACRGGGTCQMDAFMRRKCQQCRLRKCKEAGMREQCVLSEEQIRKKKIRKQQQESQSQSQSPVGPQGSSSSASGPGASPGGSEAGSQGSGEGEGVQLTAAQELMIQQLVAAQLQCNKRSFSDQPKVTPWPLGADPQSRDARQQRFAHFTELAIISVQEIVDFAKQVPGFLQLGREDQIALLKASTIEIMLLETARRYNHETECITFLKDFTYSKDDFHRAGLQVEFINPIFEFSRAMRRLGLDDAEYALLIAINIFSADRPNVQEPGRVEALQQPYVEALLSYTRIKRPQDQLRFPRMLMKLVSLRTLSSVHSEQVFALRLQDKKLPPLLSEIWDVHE
# [5] = molecular target: T3, Zinc finger protein mex-5 (Caenorhabditis elegans, UniProt Q9XUB2); assay: MEX-5/TCR-2 RNA interaction inhibitors, dose response, biochemical, C. elegans, fluorescence polarization (AID 1960)
# T3 sequence (Q9XUB2 whole entry): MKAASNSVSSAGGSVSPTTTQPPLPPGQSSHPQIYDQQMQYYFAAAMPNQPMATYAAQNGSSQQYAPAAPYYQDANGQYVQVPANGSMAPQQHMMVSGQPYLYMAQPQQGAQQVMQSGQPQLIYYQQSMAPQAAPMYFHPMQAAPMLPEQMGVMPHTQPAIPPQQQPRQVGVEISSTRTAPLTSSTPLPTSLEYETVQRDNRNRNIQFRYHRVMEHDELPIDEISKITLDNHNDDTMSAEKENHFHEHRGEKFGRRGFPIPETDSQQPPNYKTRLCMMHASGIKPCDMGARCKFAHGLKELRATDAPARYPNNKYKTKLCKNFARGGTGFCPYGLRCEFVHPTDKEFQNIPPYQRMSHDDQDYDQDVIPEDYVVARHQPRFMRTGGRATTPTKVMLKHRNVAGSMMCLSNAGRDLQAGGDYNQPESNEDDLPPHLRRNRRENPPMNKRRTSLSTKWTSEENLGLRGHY
# Estrogen receptor = molecular target: T4, Estrogen receptor (Homo sapiens, UniProt P03372); assay: potentiators of ERα–SRC-1 coactivator binding, dose response, biochemical, TR-FRET, ERα LBD (AID 737)
# T4 sequence (P03372 whole entry): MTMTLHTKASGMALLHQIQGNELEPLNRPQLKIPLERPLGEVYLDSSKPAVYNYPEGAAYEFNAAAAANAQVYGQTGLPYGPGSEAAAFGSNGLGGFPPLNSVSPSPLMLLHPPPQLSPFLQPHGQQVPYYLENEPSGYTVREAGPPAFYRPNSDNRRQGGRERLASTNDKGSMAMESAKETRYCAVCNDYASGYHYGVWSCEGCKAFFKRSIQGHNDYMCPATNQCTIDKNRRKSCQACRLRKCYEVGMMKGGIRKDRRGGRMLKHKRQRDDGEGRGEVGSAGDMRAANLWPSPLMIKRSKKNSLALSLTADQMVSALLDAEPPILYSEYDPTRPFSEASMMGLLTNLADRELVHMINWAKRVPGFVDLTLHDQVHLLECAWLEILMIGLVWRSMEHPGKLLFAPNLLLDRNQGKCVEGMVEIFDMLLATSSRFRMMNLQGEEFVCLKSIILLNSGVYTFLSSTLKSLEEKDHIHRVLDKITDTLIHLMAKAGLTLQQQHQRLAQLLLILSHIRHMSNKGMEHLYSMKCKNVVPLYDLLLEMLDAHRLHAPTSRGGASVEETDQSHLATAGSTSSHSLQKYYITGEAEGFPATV
# [6] = molecular target: NAD-dependent protein deacylase sirtuin-5, mitochondrial (Homo sapiens, UniProt Q9NXA8); assay: SIRT5 desuccinylase inhibitors, dose response, biochemical, fluorescence imaging, cherry-pick, set 5 (AID 720591);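 note: desuccinylation of succinyl peptide AMC substrate read as fluorescence after trypsin release; potency of inhibitors that lower fluorescence and may act on trypsin instead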
# Protein Tat = Protein Tat (Human immunodeficiency virus type 1 group M subtype B (isolate HXB2)(HIV-1), UniProt P04608); format: functional;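 note: tat binding to TAR RNA read out by fluorescence polarization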
# [7] = inhibitors of firefly luciferase expression or activity, dose response, H4 neuroglioma cells, luminescence (AID 1990); format: functional, cell-based
# BJ [8] = assay: cytotoxicity toward BJ-TERT-LT-ST fibroblasts, dose response, cell-based, RAS-independent, luminescence (AID 1935); format: functional; details: Homo sapiens;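 note: BJ fibroblasts immortalized with TERT plus LT and ST oncogenes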
# BJ [9] = assay: cytotoxicity toward BJ-TERT fibroblasts, dose response, cell-based, RAS-independent, luminescence (AID 1933); format: functional; details: Homo sapiens
# INS1 = assay: beta cell apoptosis inhibitors, cytokine rescue, dose response, luminescence, retest (AID 449756); format: functional, cell-based; details: Rattus norvegicus;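 note: cell death triggered by IL-1 beta plus TNF-alpha plus IFN-gamma mixture; protective hits raise ATP signal compared with cytokine alone wells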
# BJ [10] = assay: cytotoxicity toward Ras-transformed BJeLR fibroblasts, dose response, cell-based, alamar blue fluorescence, cherrypicked samples (AID 2631); format: functional; details: Homo sapiens;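 note: confirmatory dose-response assay in RAS-dependent BJ fibroblasts engineered with TERT, LT and ST, with cytotoxicity read by fluorescence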
# [11] = HEK293T cell cytotoxicity, dose response, cytotoxicity control for HIV Vif inhibitor project, cherry-picks (AID 652208); format: functional, cell-based
# BJ [12] = assay: cells; format: functional, cell-based; details: Homo sapiens
# [13] = Luminescence Cell-Based Dose Response HTS to Identify Inhibitors of 5'UTR Stem-Loop Driven Prion Protein mRNA Translation in H4 Neuroglioblastoma Cells. [Related pubchem assays: 1827 (Project Summary), 1813 (Primary HTS)]; format: functional
# [14] = cytotoxicity toward DRD oncogenic fibroblasts, dose response, cell-based, non-viral oncogenic, luminescence (AID 1934); format: functional; details: Homo sapiens
# cells [15] = format: functional, cell-based
# [16] = molecular target: T5, Nuclear receptor subfamily 0 group B member 1 (Homo sapiens, UniProt P51843); format: functional, cell-based;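 note: HEK293T cells transfected with SF-1 and DAX-1 plus StAR promoter luciferase reporter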
# T5 sequence (P51843 whole entry): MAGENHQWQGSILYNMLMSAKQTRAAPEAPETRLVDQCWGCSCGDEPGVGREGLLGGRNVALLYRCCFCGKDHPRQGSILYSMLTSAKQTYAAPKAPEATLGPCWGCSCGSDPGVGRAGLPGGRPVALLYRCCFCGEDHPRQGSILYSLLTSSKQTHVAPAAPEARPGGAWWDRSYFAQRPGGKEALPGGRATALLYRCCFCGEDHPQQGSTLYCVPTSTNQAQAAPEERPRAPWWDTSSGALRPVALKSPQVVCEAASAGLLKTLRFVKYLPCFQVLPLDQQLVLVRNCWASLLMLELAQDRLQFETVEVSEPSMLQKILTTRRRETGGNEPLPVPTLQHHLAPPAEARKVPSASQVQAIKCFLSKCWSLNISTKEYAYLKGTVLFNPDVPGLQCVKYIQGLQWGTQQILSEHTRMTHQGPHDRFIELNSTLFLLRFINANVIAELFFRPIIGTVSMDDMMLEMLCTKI
# cells [17] = assay: cells; remark: listed apart in the source
# Major prion protein = Major prion protein (Homo sapiens, UniProt P04156); format: functional, cell-based
# cells [18] = details: HEK293
# [19] = HepG2 cell cytotoxicity, dose response, cytotoxicity control, ATP luminescence, cherry-pick, set 6 (AID 1053125); format: functional, cell-based
# cells [20] = details: A549
# [21] = HEp-2 cell cytotoxicity, dose response, cytotoxicity control for RSV inhibitor project, HTS (AID 2410); format: functional; details: human respiratory syncytial virus
# [22] = A549 cell cytotoxicity, dose response, cytotoxicity control, plate reader, cherry-pick, antagonist series (AID 743412); format: functional, cell-based
# [23] = HepG2 cell cytotoxicity, dose response, cytotoxicity control, plate reader, cherry-pick, antagonist series (AID 743416); format: functional, cell-based
# Escherichia coli [24] = assay: microbe, parasite or virus in culture
# Escherichia coli [25] = assay: microbe, parasite or virus in culture; remark: listed apart in the source
# [26] = molecular target: Peroxisome proliferator-activated receptor gamma/Nuclear receptor coactivator 1 (Homo sapiens, UniProt P37231); assay: TR-FRET dose response biochemical High Throughput Screening assay for agonists of the steroid receptor coactivator 1 (SRC-1) recruitment by the peroxisome proliferator-activated receptor gamma (PPAR gamma): non-selective agonists. [Related pubchem assays (depositor defined):AID1300, AID1808, AID504735, AID631]; format: protein assay
# [27] = molecular target: Peroxisome proliferator-activated receptor gamma/Nuclear receptor coactivator 2 (Homo sapiens, UniProt P37231); assay: (§1) TR-FRET dose response biochemical High Throughput Screening assay for agonists of the steroid receptor coactivator 2 (SRC-2) recruitment by the peroxisome proliferator-activated receptor gamma (PPAR gamma): non-selective agonists. [Related pubchem assays: 1297, 1032 ]; format: functional
# [28] = molecular target: Mitogen-activated protein kinase 10 (Homo sapiens, UniProt P53779); assay: Dose response biochemical screening assay for inhibitors of c-Jun N-Terminal Kinase 3 (JNK3). [Related pubchem assays: 746 ]
# [29] = molecular target: Peroxisome proliferator-activated receptor gamma/Nuclear receptor coactivator 3 (Homo sapiens, UniProt P37231); assay: as §1, with “3 (SRC-3)” for “2 (SRC-2)”, “1301 (Confirmation screen.), 1048 (Primary screen.)]” for “1297, 1032 ]”; format: functional
# Paired box protein Pax-8 = Paired box protein Pax-8 (Homo sapiens, UniProt Q06710); assay: inhibitors of PAX8-driven TPO luciferase reporter, dose response, RMG-I cells, cherry-pick (AID 687027); format: functional, cell-based;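 note: luciferase reporter driven by Pax8 target thyroperoxidase promoter measured by SteadyGlo luminescence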
# [30] = IGROV1 ovarian cancer cell cytotoxicity, dose response, PAX8 inhibitor project, plate reader, dry powder samples (AID 743043); format: functional, cell-based; details: IGROV-1
# [31] = NIH:OVCAR-3 ovarian cancer cell cytotoxicity, dose response, PAX8 inhibitor project, plate reader, dry powder samples (AID 743044); format: functional, cell-based
smiles,measurement,setting,value
COc1cccc(CN(C)C[C@H]2Oc3c(NC(=O)c4ccncc4)cccc3C(=O)N([C@@H](C)CO)C[C@@H]2C)c1,AC50,[1],0.0568 µM (active)
COc1ccc(C2C(C(=O)c3ccco3)=C(O)C(=O)N2CCc2ccccc2)cc1OC (stereo unspecified),Ki,fMet-Leu-Phe receptor,36.9 µM (inactive)
Cc1ccc2ccc(C3C(=O)c4ccccc4C3=O)nc2c1,EC50,cells [2],> 67.6 µM (inactive)
same,EC50,[3],> 300 µM (not active)
same,EC50,[4],> 67.6 µM (inactive)
same,EC50,[5],48.4 µM (active)
same,EC50,Estrogen receptor,13.2 µM (not active)
COC(=O)c1ccc2nc(-c3ccc(OC)c(OC)c3)c(Cc3ccccc3C(F)(F)F)n2c1,AC50,[6],> 30 µM (inactive)
COc1ccc(CCNC(=O)CN2CCCc3ccccc32)cc1OC,IC50,Protein Tat,> 100 µM (active)
CC1CN(S(=O)(=O)c2ccc(C(=O)NCCCn3ccnc3)cc2)CC(C)O1 (stereo unspecified),EC50,[7],11.1 µM (active)
same,EC50,BJ [8],3.76 µM (inconclusive)
same,EC50,BJ [9],> 150 µM (not active)
same,AC50,INS1,1.17 µM (active)
same,EC50,BJ [10],0.39 µM (active)
same,AC50,[11],> 52 µM (inactive)
same,EC50,BJ [12],5.83 µM (inconclusive)
same,EC50,[13],7.94 µM (active)
same,EC50,[14],13.2 µM (active)
Cc1ccc(C(=O)Nc2ncccc2O)o1,IC50,cells [15],> 67.6 µM (inactive)
same,IC50,[16],24.7 µM (inactive)
O=C(c1ccc(F)cc1)c1cn(Cc2ccc(F)cc2)c2cc3c(cc2c1=O)OCCO3,IC50,cells [17],> 138 µM (inactive)
same,IC50,Major prion protein,3.03 µM (active)
CC(=O)Nc1cccc(-c2ccnc3c2CC(C(=O)NCc2cccc(Cl)c2)O3)c1 (stereo unspecified),AC50,cells [18],40.1 µM (active)
same,AC50,[19],> 52 µM (inactive)
same,AC50,cells [20],> 52 µM (inactive)
c1ccc(-c2csc(Nc3ccc4c(c3)OCCO4)n2)cc1,EC50,cells [2],> 67.5 µM (inactive)
same,EC50,[4],> 67.5 µM (inactive)
Cc1nc2c(-c3ccc(F)cc3)c(C)nn2c(C)c1CCC(=O)NC(C)CCc1ccco1 (stereo unspecified),CC50,[21],> 50 µM (active)
same,Ki,fMet-Leu-Phe receptor,> 66.7 µM (inactive)
Cn1c(=O)c2cc(NC(=O)NCc3ccccc3)ccc2n1C/C=C/c1ccccc1,AC50,[22],18.2 µM (active)
same,AC50,[23],36.9 µM (active)
C=C1c2cccc(O)c2C(=O)C2C(=O)[C@]3(O)C(=O)C(C(N)=O)C(=O)[C@@H](N(C)C)[C@@H]3[C@@H](O)[C@H]12 (stereo partly specified),AC50,Escherichia coli [24],2.19 µM (active)
same,AC50,Escherichia coli [25],31.7 µM (active)
same,AC50,[6],12.7 µM (active)
CCN(C)C[C@H]1Oc2c(NC(=O)c3ccncc3)cccc2C(=O)N(C(C)C)[C@@H]1C,AC50,[1],0.0842 µM (active)
COc1ccc2c(Cl)c(C(N)=O)sc2c1,IC50,cells [17],> 138 µM (inactive)
same,IC50,Major prion protein,2.46 µM (active)
same,EC50,[26],> 79.4 µM (inactive)
same,EC50,[27],16.7 µM (not active)
same,IC50,[28],68.3 µM (not active)
same,EC50,[29],> 79.4 µM (not active)
C[C@H](CO)N1C[C@H](C)[C@H](CN(C)Cc2ccc(C(F)(F)F)cc2)OCCCC[C@H](C)Oc2ccc(NC(=O)Nc3ccc4c(c3)OCO4)cc2C1=O,AC50,Paired box protein Pax-8,5.42 µM (active)
same,AC50,[30],40.3 µM (active)
same,AC50,[31],28.6 µM (active)
CN1CCN(c2ccc(-c3cccc(NC(=O)COc4ccccc4)c3)nn2)CC1,IC50,cells [15],> 67.5 µM (inactive)
same,IC50,[16],> 67.5 µM (inactive)
